Among the data in patent US20250034167A1, “HETEROCYCLIC COMPOUNDS AND METHODS OF USE” (AMGEN INC., priority 2021, published 2025) are IC50 values, retold here.

For orientation: IC50 means the point on the concentration scale where inhibition reaches its midpoint.

The subject of the first assay is Phosphorylation of ERK1/2 in AsPC-1 cells. Nature of the assay: Phospho-ERK1/2 MSD Assay. The assay is classed as cell-based. The following applies: Homo sapiens, ASPC1, 2 h, read-out: 2 h p-ERK (AsPC-1 cells), IC50, AsPC-1 cells, 2 h compound treatment. The method, then: Sixteen hours prior to compound treatment, AsPC-1 cells were seeded in 96-well cell culture plates at a density of 25,000 cells/well and incubated at 37° C., 5% CO2. A compound dose-response titration was diluted in growth media, added to appropriate wells of a cell culture plate, and then incubated at 37° C., 5% CO2 for 2 hours.
In the case of `CCc1c(F)ccc2cccc(-c3ncc4c(N5CCC[C@@](C)(O)C5)nc(OC[C@@]56CCCN5C[C@H](F)C6)nc4c3F)c12` [Example 48, (R)-1-(7-(8-Ethyl-7-fluoronaphthalen-1-yl)-8-fluoro-2-(((2R,7aS)-2-fluorotetrahydro-1H-pyrrolizin-7a(5H)-yl)methoxy)pyrido[4,3-d]pyrimidin-4-yl)-3-methylpiperidin-3-ol], the IC50 was found to be 341 nM.

In the case of `CCc1c(F)ccc2cc(O)cc(-c3ncc4c(N5CC6CC5C(C)(O)C6)nc(OC[C@@]56CCCN5C[C@H](F)C6)nc4c3F)c12` (stereo partly drawn) [Example 71, 2-(7-(8-Ethyl-7-fluoro-3-hydroxynaphthalen-1-yl)-8-fluoro-2-(((2R,7aS)-2-fluorotetrahydro-1H-pyrrolizin-7a(5H)-yl)methoxy)pyrido[4,3-d]pyrimidin-4-yl)-6-methyl-2-azabicyclo[2.2.1]heptan-6-ol], the IC50 stood at 1170 nM.

As to `CCc1c(F)ccc2cc(O)cc(-c3ncc4c(N5CCC[C@@H](CO)C5)nc(OC[C@@]56CCCN5C[C@H](F)C6)nc4c3F)c12` [Example 128, 5-Ethyl-6-fluoro-4-(8-fluoro-2-(((2R,7aS)-2-fluorotetrahydro-1H-pyrrolizin-7a(5H)-yl)methoxy)-4-((R)-3-(hydroxymethyl)piperidin-1-yl)pyrido[4,3-d]pyrimidin-7-yl)naphthalen-2-ol], the IC50 came to 293 nM.

For the compound `CCc1c(F)ccc2cc(O)cc(-c3ncc4c(N5CCC[C@@](C)(NC(C)=O)C5)nc(OC[C@@]56CCCN5C[C@H](F)C6)nc4c3F)c12` [Example 76, N-((R)-1-(7-(8-Ethyl-7-fluoro-3-hydroxynaphthalen-1-yl)-8-fluoro-2-(((2R,7aS)-2-fluorotetrahydro-1H-pyrrolizin-7a(5H)-yl)methoxy)pyrido[4,3-d]pyrimidin-4-yl)-3-methylpiperidin-3-yl)acetamide], the IC50 worked out at 1100 nM.

Consider `CCc1c(F)ccc2cc(O)cc(-c3ncc4c(N5CCCC(=O)CC5)nc(OC[C@@]56CCCN5C[C@H](F)C6)nc4c3F)c12` [Example 95, 1-(7-(8-Ethyl-7-fluoro-3-hydroxynaphthalen-1-yl)-8-fluoro-2-(((2R,7aS)-2-fluorotetrahydro-1H-pyrrolizin-7a(5H)-yl)methoxy)pyrido[4,3-d]pyrimidin-4-yl)azepan-4-one], for which the IC50 was 74 nM.

`CCc1c(F)ccc2cc(O)cc(-c3ncc4c(N5CCCC(OC)C5)nc(OC[C@@]56CCCN5C[C@H](F)C6)nc4c3F)c12` (stereo partly drawn) [Example 15, 5-Ethyl-6-fluoro-4-(8-fluoro-2-(((2R,7aS)-2-fluorotetrahydro-1H-pyrrolizin-7a(5H)-yl)methoxy)-4-(3-methoxypiperidin-1-yl)pyrido[4,3-d]pyrimidin-7-yl)naphthalen-2-ol]: the IC50 was 1480 nM.

In the case of `NS(=O)(=O)[C@@H]1CCCN(c2nc(OC[C@@]34CCCN3C[C@H](F)C4)nc3c(F)c(-c4cc(O)cc5ccc(F)c(F)c45)ncc23)C1` [Example 165, (R)-1-(7-(7,8-Difluoro-3-hydroxynaphthalen-1-yl)-8-fluoro-2-(((2R,7aS)-2-fluorotetrahydro-1H-pyrrolizin-7a(5H)-yl)methoxy)pyrido[4,3-d]pyrimidin-4-yl)piperidine-3-sulfonamide], the IC50 stood at 1160 nM.

Still in this assay, the particulars now being: Homo sapiens, ASPC1, read-out: 2 h p-ERK (AsPC-1 cells), IC50; AsPC-1 cells, 2 h compound treatment.
For the compound `[2H]C([2H])([2H])[C@@]1(O)CCCN(c2nc(OC[C@@]34CCCN3C[C@H](F)C4)nc3c(F)c(-c4cc(O)cc5ccc(F)c(CC)c45)ncc23)C1` [Example 176, (R)-1-(7-(8-Ethyl-7-fluoro-3-hydroxynaphthalen-1-yl)-8-fluoro-2-(((2R,7aS)-2-fluorotetrahydro-1H-pyrrolizin-7a(5H)-yl)methoxy)pyrido[4,3-d]pyrimidin-4-yl)-3-(methyl-d3)piperidin-3-ol], the IC50 was found to be 5 nM.

The assay is the same for the next values; noted with them: read-out: 2 h p-ERK (AsPC-1 cells), IC50; AsPC-1 cells, 2 h compound treatment.
Regarding `CCc1c(F)ccc2cc(O)cc(-c3ncc4c(N5CCCC(O)(CF)C5)nc(OC[C@@]56CCCN5C[C@H](F)C6)nc4c3F)c12` (single isomer, unassigned) [Example 171], the IC50 is 2 nM.
